# Assay results: patent publication US20030013660A1, “Dioxolane analogs for improved inter-cellular delivery” (Shire BioChem Inc., priority 2000, published 2003)
# pIC50: −log10 of the molar value. Values joined by “and” are separate entries in the source; they are usually repeats but may differ in a detail not shown here. Equal values may be shown once. Read-outs that look alike come from different tables or passages of the source.
# How the values were obtained:
# H-460 [1] = test: 3H-TdR (3H-thymidine) incorporation assay at 72 hr; type: cell-based, Human; conditions: Homo sapiens, 3H-TdR incorporation at 72 hr
# MCF-7 = test: 3H-TdR (3H-thymidine) incorporation assay at 72 hr; type: cell-based, Human; conditions: Homo sapiens, 3H-TdR incorporation at 72 hr
# SF-268 = test: 3H-TdR (3H-thymidine) incorporation assay at 72 hr; type: cell-based, Human; conditions: Homo sapiens, 3H-TdR incorporation at 72 hr
# CCRF-CEM = test: 3H-TdR (3H-thymidine) incorporation assay at 72 hr; type: cell-based; conditions: Homo sapiens, CCRF-CEM, read-out: IC50 CCRF-CEM 24 h, 24 h drug exposure, wash, another 48 hr; 3H-TdR incorporation at 72 hr
# Method: (§1) Table of IC50 Values (μM) for Controls
# (§2) Exposition of 24 hr to drug, wash, incubated for another 48 hr (total of 72 hr assay)
# (§3) (3H-Thymidine Incorporation Assay)
# CEM/dCK- [2] = test: 3H-TdR (3H-thymidine) incorporation assay at 72 hr; type: cell-based; conditions: for pIC50: deoxycytidine kinase-deficient CCRF-CEM; for Factor* (Resistance Factor = Ratio of dCK- on Wild-type CCRF-CEM): ratio of IC50 CEM/dCK- to CCRF-CEM, 24 h
# Method: as §1, §2, §3
# H-460 [3] = test: 3H-TdR incorporation at 72 hr (24 hr drug exposure, wash, 48 hr); type: cell-based, Human; conditions: read-out: IC50 in μM (3H-TdR incorporation at 72 hr) H-460 24 h, H-460 Human Lung Carcinoma, 72 hr assay
# Method: as §2, §3
# CEM/dCK- [4] = test: as above; type: cell-based; conditions: ratio of IC50 CEM/dCK- to IC50 CCRF-CEM
# Method: as §2, §3
# [5] = NCI-H460, read-out: IC50 H-460 24 h, 24 h drug exposure, wash, another 48 hr
# [6] = MCF7, read-out: IC50 MCF-7 24 h, 24 h drug exposure, wash, another 48 hr
# [7] = SF-268, read-out: IC50 SF-268 24 h, 24 h drug exposure, wash, another 48 hr
# [8] = Homo sapiens, CCRF-CEM, read-out: IC50 CEM/dCK- 24 h, 24 h drug exposure, wash, another 48 hr
# [9] = NCI-H460, read-out: IC50 H-460 (72 h), 72 h exposure
# [10] = MCF7, read-out: IC50 MCF-7 (72 h), 72 h exposure
# [11] = SF-268, read-out: IC50 SF-268 (72 h), 72 h exposure
pIC50 (H-460 [1]; [5]),pIC50 (MCF-7; [6]),pIC50 (SF-268; [7]),pIC50 (CCRF-CEM),pIC50 (CEM/dCK- [2]; [8]),pIC50 (H-460 [1]; [9]),pIC50 (MCF-7; [10]),pIC50 (SF-268; [11]),"pIC50 (CEM/dCK- [2]; read-out: IC50 CEM/dCK- 24 h, 24 h drug exposure, wash, another 48 hr)",Structure (SMILES),Factor* (Resistance Factor = Ratio of dCK- on Wild-type CCRF-CEM) (CEM/dCK- [2]),IC50 (H-460 [3]) [µM],Factor* (Resistance Factor = Ratio of dCK- on Wild-type CCRF-CEM) (CEM/dCK- [4])
7.92,8.43,6.85,8.41,4.49,,,,,"CN(C)/C=N/c1ccn([C@@H]2CO[C@H](COC(=O)Cc3ccc(N(C)C)cc3)O2)c(=O)n1 [Compound 143, (2S,4S)-2-(4″-N,N- DIMETHYLAMINOPHENYLACET OXY)METHYL-4-(4′-N,N- DIMETHYLAMINOMETHYLENE- CYTOSIN-1′-YL)-1,3- DIOXOLANE]","8,205",,
5.52,5.28,5.72,6.15,4.11,,,,,"O=c1nc(NC2(c3ccccc3)c3ccccc3Oc3ccccc32)ccn1[C@@H]1CO[C@H](COC2(c3ccccc3)c3ccccc3Oc3ccccc32)O1 [Compound 144, 4-(9-PHENYL-9#H!- XANTHEN-9-YLAMINO)-1- [2-(9-PHENYL-9#H!- XANTHEN-9-YLOXYMETHYL)- [1,3]DIOXOLAN-4-YL]- 1#H!-PYRIMIDIN-2-ONE]",110,,
6.11,5.92,7.55,6.89,4.30,,,,,"Nc1ccn([C@@H]2CO[C@H](COC3(c4ccccc4)c4ccccc4Oc4ccccc43)O2)c(=O)n1 [Compound 146, 4-AMINO-1-[2-(9-PHENYL- 9#H!-XANTHEN-9- YLOXYMETHYL)- [1,3]DIOXOLAN-4-YL]- 1#H!-PYRIMIDIN-2-ONE]",385,,
7.22,6.96,7.77,7.60,< 4.00,,,,,"Nc1ccn([C@@H]2CO[C@H](COC(=S)Oc3ccccc3)O2)c(=O)n1 [Compound 147, THIOCARBONIC ACID O- [4(S)-(4′-AMINO-2′-OXO- 2H-PYRIMIDIN-1′-YL)- [1,3]DIOXOLAN-2(S)- YLMETHYL] ESTER O- PHENYL ESTER]",>4000,,
6.02,5.80,5.89,6.89,4.05,,,,,"CCCCCCOC(=O)Nc1ccn([C@@H]2CO[C@H](COC(=O)OCCCCCC)O2)c(=O)n1 [Compound 150, CARBONIC ACID HEXYL ESTER 4-(4- HEXYLOXYCARBONYLAMINO- 2-OXO-2H-PYRIMIDIN-1- YL)-[1,3]DIOXOLAN-2- YLMETHYL ESTER]",692,,
5.46,5.52,4.51,6.10,< 4.00,,,,,"O=c1nc(NCn2nnc3ccccc32)ccn1[C@@H]1CO[C@H](CO)O1 [Compound 152, 4-[(BENZOTRIAZOL-1- YLMETHYL)-AMINO]-1-(2- HYDROXYMETHYL- [1,3]DIOXOLAN-4-YL)-1H- PYRIMIDIN-2-ONE]",>127,,
4.34,4.41,4.23,6.68,< 4.00,,,,,"O=C(Nc1ccn([C@@H]2CO[C@H](COC(=O)c3ccccc3)O2)c(=O)n1)OCc1ccccc1 [Compound 153, BENZOIC ACID 4-(4- BENZYLOXYCARBONYLAMINO- 2-OXO-2H-PYRIMIDIN-1- YL)-[1,3]DIOXOLAN-2- YLMETHYL ESTER]",>476,,
6.12,5.80,5.36,6.85,< 4.00,,,,,"CC(C)(OCc1ccccc1)OC[C@H]1OC[C@@H](n2ccc(N)nc2=O)O1 [Compound 154, 4-AMINO-1-[2-(1- BENZYLOXY-1-METHYL- ETHOXYMETHYL)- [1,3]DIOXOLAN-4-YL]-1H- PYRIMIDIN-2-ONE]",>714,,
6.92,7.17,6.03,8.15,4.09,,,,,"CC(C)C(C(=O)OC[C@H]1OC[C@@H](n2ccc(N)nc2=O)O1)N(C)C (stereo partly drawn) [Compound 156, (2S,4S)-2-(N,N- DIMETHYL-L- VALINYLOXYMETHYL)-4- CYTOSIN-1′-YL-1,3- DIOXOLANE]","11,571",,
7.62,6.26,5.66,7.92,< 4.00,,,,,"CC(C(=O)OC[C@H]1OC[C@@H](n2ccc(N)nc2=O)O1)C(c1ccccc1)c1ccccc1 (stereo partly drawn) [Compound 157, (2S,4S)-(3″-DIPHENYL- 2″- METHYLPROPIOXYMETHYL)- 4-CYTOSIN-1′-YL-1,3- DIOXOLANE]",>8333,,
6.04,6.44,5.92,6.44,< 4.00,,,,,"O=C(Nc1ccn([C@@H]2CO[C@H](CO)O2)c(=O)n1)OCCCCCl [Compound 160, [1-(2-HYDROXYMETHYL- [1,3]DIOXOLAN-4-YL)-2- OXO-1,2-DIHYDRO- PYRIMIDIN-4-YL]- CARBAMIC ACID 4-CHLORO- BUTYL ESTER]",>278,,
,,,,,,,,,"Nc1ccn([C@@H]2CO[C@H](COC(=O)c3ccc(C(F)(F)F)cc3)O2)c(=O)n1 [Compound 189, 4-TRIFLUOROMETHYL- BENZOIC ACID 4-(4- AMINO-2-OXO-2H- PYRIMIDIN-1-YL)- [1,3]DIOXOLAN-2-YL METHYL ESTER]",,0.0012,1333 and 1300
,,,,,,,,,"Nc1ccn([C@@H]2CO[C@H](COC(=O)c3ccc([N+](=O)[O-])cc3)O2)c(=O)n1 [Compound 204, 4-NITRO-BENZOIC ACID 4- (4-AMINO-2-OXO-2H- PYRIMIDIN-1-YL)- [1,3]DIOXOLAN-2-YL METHYL ESTER]",,0.015,1600
,,,8.25,4.29,8.92,8.36,7.89,,"CC(C)C(=O)OC[C@H]1OC[C@@H](n2ccc(N)nc2=O)O1 [Compound 275, ISOBUTYRIC ACID 4-(4- AMINO-2-OXO-2H- PYRIMIDIN-1-YL)- [1,3]DIOXOLAN-2-YL METHYL ESTER]","9,214",,
7.10,7.42,7.03,7.55,4.15,8.62,7.64,7.89,4.04,"CC(C)CC(=O)OC[C@H]1OC[C@@H](n2ccc(N)nc2=O)O1 [Compound 278, 3-METHYL-BUTYRIC ACID 4-(4-AMINO-2-OXO-2H- PYRIMIDIN-1-YL)- [1,3]DIOXOLAN-2-YL METHYL ESTER]",,,

Structure (SMILES),pIC50 (H-460 [1]; [5]),pIC50 (MCF-7; [6]),pIC50 (SF-268; [7]),pIC50 (CCRF-CEM),pIC50 (CEM/dCK- [2]; [8]),pIC50 (H-460 [1]; [9]),pIC50 (MCF-7; [10]),pIC50 (SF-268; [11]),"pIC50 (CEM/dCK- [2]; read-out: IC50 CEM/dCK- 24 h, 24 h drug exposure, wash, another 48 hr)",Factor* (Resistance Factor = Ratio of dCK- on Wild-type CCRF-CEM) (CEM/dCK- [2]),IC50 (H-460 [3]) [µM],Factor* (Resistance Factor = Ratio of dCK- on Wild-type CCRF-CEM) (CEM/dCK- [4])
"CN(C)/C=N/c1ccn([C@@H]2CO[C@H](COC(=O)C(C)(C)c3ccccc3)O2)c(=O)n1 [Compound 142, (2S,4S)-2-(2″- DIMETHYLPHENYLACETOXY)M ETHYL-4-(4′-N,N- DIMETHYLAMINOMETHYLENE- CYTOSTN-1,-YL)-1,3- DIOXOLANE]",7.42,7.54,6.89,8.14,4.34,,,,,"6,389",,
"O=C(Nc1ccn([C@@H]2CO[C@H](COC(=O)OCCCCCl)O2)c(=O)n1)OCCCCCl [Compound 159, CARBONIC ACID 4-[4-(4- CHLORO- BUTOXYCARBONYLAMINO)-2- OXO-2H-PYRIMIDIN-1-YL]- [1,3]DIOXOLAN-2- YLMETHYL ESTER 4- CHLORO-BUTYL ESTER]",6.06,6.14,5.80,6.42,< 4.00,,,,,>263,,
"CC(C)[C@H](N)C(=O)Nc1ccn([C@@H]2CO[C@H](CO)O2)c(=O)n1.O=C(O)C(F)(F)F [Compound 280, 2-Amino-N-[1-(2-hydoxymethyl-[1,3]dioxolan-4-yl)-2-oxo-1,2-dihydro-pyrimidin-4-yl]-3-methyl-butyramide; trifluoroacetic acid salt]",5.72,5.51,4.74,5.72,< 4.00,,,,,>53,,
